{
  "source": "patent US20030082752A1",
  "about": "“Enzymatic process for producing GDP-alpha-D-mannose, a GDP mannose pyrophosphorylase and phosphomannomutase suitable for that process, the extraction of the said enzymes, and an enzyme test” (priority 1995, published 2003)",
  "molecules": {"B1": {"name": "Pseudomonas aeruginosa (Shinabarger et al 1991): Bifunctional GDP-Man-PP from Pseudomonas aeruginosa with phosphomannose isomerase and pyrophosphorylase activity (protein, UniProt P07874 1-481, looked up)", "Alginate biosynthesis protein …": "MIPVILSGGSGSRLWPLSRKQYPKQFLALTGDDTLFQQTIKRLAFDGMQAPLLVCNKEHRFIVQEQLEAQNLASQAILLEPFGRNTAPAVAIAAMKLVAEGRDELLLILPADHVIEDQRAFQQALALATNAAEKGEMVLFGIPASRPETGYGYIRASADAQLPEGVSRVQSFVEKPDEARAREFVAAGGYYWNSGMFLFRASRYLEELKKHDADIYDTCLLALERSQHDGDLVNIDAATFECCPDNSIDYAVMEKTSRACVVPLSAGWNDVGSWSSIWDVHAKDANGNVTKGDVLVHDSHNCLVHGNGKLVSVIGLEDIVVVETKDAMMIAHKDRVQDVKHVVKDLDAQGRSETQNHCEVYRPWGSYDSVDMGGRFQVKHITVKPGARLSLQMHHHRAEHWIVVSGTAQVTCDDKTFLLTENQSTYIPIASVHRLANPGKIPLEIIEVQSGSYLGEDDIERLEDVYGRTAEPALQVVAGSR"}},
  "key": {"[1]": {"molecular_target": "T1, GDP-mannose pyrophosphorylase (Salmonella typhimurium, UniProt P26404)", "T1 construct": "made in house; host or cells: Escherichia coli BL21(DE3)pLysS with pERJ-1 (pT7-6/rfbM)", "T1 sequence (P26404 whole entry)": "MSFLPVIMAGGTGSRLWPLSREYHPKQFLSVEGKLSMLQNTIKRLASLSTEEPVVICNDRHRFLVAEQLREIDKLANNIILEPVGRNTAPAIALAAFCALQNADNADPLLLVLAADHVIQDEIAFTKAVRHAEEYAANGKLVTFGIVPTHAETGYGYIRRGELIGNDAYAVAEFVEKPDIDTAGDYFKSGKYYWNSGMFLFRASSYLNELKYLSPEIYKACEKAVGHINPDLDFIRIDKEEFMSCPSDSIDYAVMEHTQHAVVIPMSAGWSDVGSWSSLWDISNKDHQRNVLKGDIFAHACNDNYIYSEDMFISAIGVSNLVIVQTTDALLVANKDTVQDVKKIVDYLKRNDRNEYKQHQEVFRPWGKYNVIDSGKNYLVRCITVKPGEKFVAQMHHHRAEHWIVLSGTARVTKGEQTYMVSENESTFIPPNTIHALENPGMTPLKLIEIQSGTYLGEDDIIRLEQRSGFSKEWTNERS", "type": "biochemical, Salmonella enterica, group B", "conditions": "for kmax value: GTP varied at 0.08 mM M-1-P, M-1-P varied at 2 mM GTP", "method": "(§1) GTP was used at concentrations of 0.01-10 mM (FIG. 7).\nb) Nucleoside triphosphate: GTP\nSugar-1-phosphates: Glucose-1-P, N-acetylglucosamine-1-P-, glucosamine-1-P, galactose-1-P, galactosamine-1-P, N-acetylgalactosamine-1-P, glucuronic acid-1-P, galacturonic acid-1-P, xylose-1-P, mannose-1-P\n(§2) The total volume was 200 μL."}, "[2]": {"molecular_target": "Salmonella enterica group B (formerly Salmonella typhimurium LT2) GDP-mannose pyrophosphorylase (rfb M, EC 2.7.7.13), recombinant from E. coli BL21(DE3)pLysSpERJ-1 (Salmonella typhimurium, UniProt P26404)", "sequence (P26404 whole entry)": "as above", "test": "biochemical", "source_text": "(§7) In the manner described below, it is possible to determine, by the use of the substrates (sugar-1-phosphates or sugar in the case of neuraminic acid) and nucleoside triphosphates any pyrophosphorylase activity which presents an activity in the test mixture of≧0.2 mU/mL.\nThe enzyme test (Nucleotidyl transferase substrate screening assay ‘NUSSA’) is based on the fact that in the nucleotidyl transferase reaction (EC 2.7-7), pyrophosphate is produced with a pyrophosphate-dependent phosphofructokinase (PPiPFK from plants or bacteria EC 2.7.1.90) with fructose-6-phosphate and in the presence of fructose-2,6-diphosphate to make fructose-1,6-diphosphates. This product is cleaved with an aldolase to form dihydroxyacetone phosphate (DHAP) and glycerin-3-phosphate (GAP). From glycerinaldehyde-3-phosphate, dihydroxyacetone phosphate is produced with the triose phosphate isomerase. Finally, dihydroxyacetone phosphate is reduced with glycerin-3-phosphate dehydrogenase to glycerin-3-phosphate (G-3-P) with NADH. 2 mol of NADH are used per mol of pyrophosphate; this consumption can be monitored by photometry.\n3) Influence of GDP-mannose on the synthesis\nThe concentration of GTP was varied between 0.08mM and 6 mm.\nThe GDP-mannose was used at 0μM, 50 μM, and 100 μM in the test. […]\n(§8) The total volume was 200 μL. The preparations were measured in a Titertek photometer molecular device, Munich, by photometry. […]"}, "[3]": {"test_system": "pyrophosphorylases in Escherichia coli BL21(DE3)pLysSpERJ-1 raw extract", "test": "NUSSA screening of pyrophosphorylases in E. coli raw extract", "type": "biochemical", "conditions": "20 μg/mL raw extract", "method": "as §2\n2) Example: Use of NUSSA for screening pyrophoshorylases in two different enzyme sources: a) Escherichia coli BL21(DE3)pLysSpERJ-1\n(§3) For using the test, the PPIPFK has to be purified. As a simple and easily available enzyme source, potatoes were selected (Solanum tuberosum L.) . The purification was carried out according to the method described by van Schaftingen et al., 1982 in Eur. J. Biochem., Vol. 129, pp. 191-195. The enzyme (PPIPFK) was stored in 25% glycerin at -20° C.\n(§4) Escherichia Coli BL21(DE3)pLysSpERJ-1 was cultured and broken up as described above. The resulting raw homogenate was centrifuged at 10,000 rpm for 2 min, and at 20° C., then used in the enzyme test (21.02 mg/mL). The rice was broken up according to Elling, 1993, German Patent DE 4,221,595 Cl, at 10,000 rpm, 10 min, 20° C., and it was used as a raw extract (4.26 mg/mL) in the enzyme screening. The substrates tested were: […]\n(§5) a) Nucleoside triphosphate: ATP, CTP, GTP, UTP, dTTP, each at 1 mM in the test with glucose-1-phosphate (2.5 mM) b) Nucleoside triphosphate UTP (1 mM)\n(§6) Sugar-1-phosphate, each at 2.5 mM in the test"}, "[4]": {"test_system": "pyrophosphorylases in rice (Oryza sativa L.) raw extract", "test": "NUSSA screening of pyrophosphorylases in rice raw extract", "type": "biochemical", "method": "as §2\n2) Example: Use of NUSSA for screening pyrophoshorylases in two different enzyme sources: b) Rice (Oryza sativa L.)\nas §3, §4, §5, §6"}, "[5]": {"molecular_target": "Salmonella enterica group B (formerly Salmonella typhimurium LT2) GDP-mannose pyrophosphorylase (rfb M, EC 2.7.7.13), recombinant from E. coli BL21(DE3)pLysSpER (Salmonella typhimurium, UniProt P26404)", "sequence (P26404 whole entry)": "as above", "method": "as §1, §2"}, "[6]": {"test_system": "Nc1nc2c(ncn2[C@@H]2O[C@H](COP(=O)(O)OP(=O)(O)OP(=O)(O)O)[C@@H](O)[C@H]2O)c(=O)[nH]1", "test": "purified protein, by the assay type", "conditions": "other: GTP 0.01-10 mM, mannose-1-phosphate constant 0.08 mM, NUSSA, Tris-HCl pH 8", "source_text": "as §7\nThe enzyme test (Nucleotidyl transferase substrate screening assay ‘NUSSA’) is based on the fact that in the nucleotidyl transferase reaction (EC 2.7-7), pyrophosphate is produced with a pyrophosphate-dependent phosphofructokinase (PPiPFK from plants or bacteria EC 2.7.1.90) with fructose-6-phosphate and in the presence of fructose-2,6-diphosphate to make fructose-1,6-diphosphates. This product is cleaved with an aldolase to form dihydroxyacetone phosphate (DHAP) and glycerin-3-phosphate (GAP). From glycerinaldehyde-3-phosphate, dihydroxyacetone phosphate is produced with the triose phosphate isomerase. Finally, dihydroxyacetone phosphate is reduced with glycerin-3-phosphate dehydrogenase to glycerin-3-phosphate (G-3-P) with NADH. 2 mol of NADH are used per mol of pyrophosphate; this consumption can be monitored by photometry. [drawing 3]\nGTP was used at concentrations of 0.01-10 mM (FIG. 7). […]\nas §8"}, "[7]": {"test_system": "O=P(O)(O)O[C@H]1O[C@H](CO)[C@@H](O)[C@H](O)[C@@H]1O", "test": "purified protein, by the assay type", "conditions": "other: mannose-1-phosphate 0.002-0.6 mM, GTP constant 2 mM, NUSSA, Tris-HCl pH 8"}, "[8]": {"conditions": "literature, cited from earlier work"}, "[9]": {"conditions": "α-D-sugar-1-phosphate 2.5 mM with UTP 1 mM"}, "[10]": {"conditions": "NTP 1 mM with α-D-glucose-1-phosphate 2.5 mM"}, "[11]": {"conditions": "NTP 1 mM with α-D-glucose-1-phosphate 2.5 mM, 1.06 μg/mL-0.14 mg/mL raw extract"}, "[12]": {"conditions": "α-D-sugar-1-phosphate 2.5 mM with GTP 1 mM"}},
  "note": "Like-named read-outs stand apart in the source and are kept apart here.",
  "data": [
    {"molecule": "Nc1nc2c(ncn2[C@@H]2O[C@H](COP(=O)(O)OP(=O)(O)O[C@H]3O[C@H](CO)[C@@H](O)[C@H](O)[C@@H]3O)[C@@H](O)[C@H]2O)c(=O)[nH]1", "note": "[GDP-mannose, GDP-alpha-D-mannose]", "values": [
      {"measurement": "type of inhibition with respect to M-1-P", "setting": "[1]; GTP constant 2 mM, M-1-P 0.003-0.3 mM", "result": "noncompetitive inhibition"},
      {"measurement": "type of inhibition with respect to GTP", "setting": "[1]; M-1-P constant 0.08 mM, GTP 0.08-6 mM", "result": "competitive inhibition"},
      {"measurement": "Ki", "setting": "[2]", "result": 14.9, "unit": "µM"},
      {"measurement": "Ki", "setting": "[2]; Ki value, noncompetitive inhibition with respect to M-1-P, mannose-1-phosphate 0.003-0.3 mM, GTP constant 2 mM, 5.67 μg/mL enzyme", "result": 118, "unit": "µM"}
    ]},
    {"molecule": "N[C@H]1[C@H](OP(=O)(O)O)O[C@H](CO)[C@@H](O)[C@@H]1O", "note": "[α-D-Glucosamin-1-P, α-D-Glucosamine-1-P]", "values": [
      {"measurement": "Specific activity of pyrophosphorylases, E. coli", "setting": "[3]; [9]", "result": 2.75, "unit": "mU/mg"}
    ]},
    {"molecule": "O=P(O)(O)O[C@H]1OC[C@@H](O)[C@H](O)[C@H]1O", "note": "[α-D-Xylose-1-P]", "values": [
      {"measurement": "Specific activity of pyrophosphorylases, rice", "setting": "[4]; [9]", "result": 0.42, "unit": "mU/mg"}
    ]},
    {"molecule": "O=C(O)[C@H]1O[C@H](OP(=O)(O)O)[C@H](O)[C@@H](O)[C@@H]1O", "note": "[α-D-Glucurons{overscore (a)}ure-1-P, α-D-Glucuronic acid-1-P]", "values": [
      {"measurement": "Specific activity of pyrophosphorylases, E. coli", "setting": "[3]; [9]", "result": 4.72, "unit": "mU/mg"},
      {"measurement": "Specific activity of pyrophosphorylases, rice", "setting": "[4]; [9]", "result": 14.27, "unit": "mU/mg"}
    ]},
    {"molecule": "O=C(O)[C@H]1O[C@H](OP(=O)(O)O)[C@H](O)[C@@H](O)[C@H]1O", "note": "[α-D-Galacrurons{overscore (a)}ure-1-P, α-D-Galacturonic acid-1-P]", "values": [
      {"measurement": "Specific activity of pyrophosphorylases, E. coli", "setting": "[3]; [9]", "result": 3.66, "unit": "mU/mg"},
      {"measurement": "Specific activity of pyrophosphorylases, rice", "setting": "[4]; [9]", "result": 2.94, "unit": "mU/mg"}
    ]},
    {"molecule": "Nc1ncnc2c1ncn2[C@@H]1O[C@H](COP(=O)(O)OP(=O)(O)OP(=O)(O)O)[C@@H](O)[C@H]1O", "note": "[ATP]", "values": [
      {"measurement": "Specific activity of pyrophosphorylases, E. coli", "setting": "[3]; [10]", "result": 2.76, "unit": "mU/mg"}
    ]},
    {"molecule": "O=c1ccn([C@@H]2O[C@H](COP(=O)(O)OP(=O)(O)OP(=O)(O)O)[C@@H](O)[C@H]2O)c(=O)[nH]1", "note": "[UTP]", "values": [
      {"measurement": "Specific activity of pyrophosphorylases, E. coli", "setting": "[3]; [10]", "result": 214.10, "unit": "mU/mg"},
      {"measurement": "Specific activity of pyrophosphorylases, rice", "setting": "[4]; [11]", "result": 982.40, "unit": "mU/mg"}
    ]},
    {"molecule": "N[C@H]1[C@@H](OP(=O)(O)O)O[C@H](CO)[C@H](O)[C@@H]1O", "note": "[α-D-Galactosamin-1-P]", "values": [
      {"measurement": "Specific activity of pyrophosphorylases, rice", "setting": "[4]; [9]", "result": 0.25, "unit": "mU/mg"}
    ]},
    {"molecule": "CC(=O)N[C@H]1[C@@H](OP(=O)(O)O)O[C@H](CO)[C@@H](O)[C@@H]1O", "note": "[α-D-GlcNAc-1, N-acetylglucosamine-1-P-]", "values": [
      {"measurement": "Specific activity of pyrophosphorylases, E. coli", "setting": "[3]; [9]", "result": 2.02, "unit": "mU/mg"},
      {"measurement": "Specific activity of pyrophosphorylases, rice", "setting": "[4]; [9]", "result": 0.27, "unit": "mU/mg"}
    ]},
    {"molecule": "Nc1nc2c(ncn2[C@@H]2O[C@H](COP(=O)(O)OP(=O)(O)OP(=O)(O)O)[C@@H](O)[C@H]2O)c(=O)[nH]1", "note": "[GTP]", "values": [
      {"measurement": "kmax value", "setting": "[1]", "result": 2.4, "unit": "U/mg"},
      {"measurement": "kmax value (GTP)", "setting": "[5]; pH 8", "result": 2.4, "unit": "U/mg"}
    ]},
    {"molecule": "Cc1cn([C@H]2C[C@H](O)[C@@H](COP(=O)(O)OP(=O)(O)OP(=O)(O)O)O2)c(=O)[nH]c1=O", "note": "[dTTP]", "values": [
      {"measurement": "Specific activity of pyrophosphorylases, E. coli", "setting": "[3]; [10]", "result": 10.32, "unit": "mU/mg"},
      {"measurement": "Specific activity of pyrophosphorylases, rice", "setting": "[4]; [11]", "result": 5.98, "unit": "mU/mg"}
    ]},
    {"molecule": "O=P(O)(O)O[C@H]1O[C@H](CO)[C@@H](O)[C@H](O)[C@@H]1O", "note": "[M-1-P, mannose-1-phosphate]", "values": [
      {"measurement": "kmax value", "setting": "[1]", "result": 1.8, "unit": "U/mg"},
      {"measurement": "Specific activity of pyrophosphorylases, E. coli", "setting": "[3]; [12]", "result": 3.41, "unit": "mU/mg"},
      {"measurement": "Specific activity of pyrophosphorylases, rice", "setting": "[4]; [12]", "result": 1.51, "unit": "mU/mg"},
      {"measurement": "kmax value (M-1-P)", "setting": "[5]; vmax, mannose-1-phosphate 0.002-0.6 mM, GTP constant 2 mM, NUSSA, Tris-HCl pH 8", "result": 1.8, "unit": "U/mg"}
    ]},
    {"molecule": "Nc1ccn([C@@H]2O[C@H](COP(=O)(O)OP(=O)(O)OP(=O)(O)O)[C@@H](O)[C@H]2O)c(=O)n1", "note": "[CTP]", "values": [
      {"measurement": "Specific activity of pyrophosphorylases, E. coli", "setting": "[3]; [10]", "result": 0.75, "unit": "mU/mg"}
    ]},
    {"molecule": "Salmonella enterica group B (formerly Salmonella typhimurium LT2) GDP-mannose pyrophosphorylase (rfb M, EC 2.7.7.13), recombinant from E. coli BL21(DE3)pLysSpERJ-1 (Salmonella enterica subsp. enterica serovar Typhimurium str. LT2)", "values": [
      {"measurement": "Km", "setting": "[6]", "result": 0.2, "unit": "mM mM"},
      {"measurement": "Km", "setting": "[7]", "result": 0.01, "unit": "mm mm"}
    ]},
    {"molecule": "CC(=O)N[C@H]1[C@@H](OP(=O)(O)O)O[C@H](CO)[C@H](O)[C@@H]1O", "note": "[α-D-GalNAc-1-P, N-acetylgalactosamine-1-P]", "values": [
      {"measurement": "Specific activity of pyrophosphorylases, rice", "setting": "[4]; [9]", "result": 0.18, "unit": "mU/mg"}
    ]},
    {"molecule": "O=P(O)(O)O[C@H]1O[C@H](CO)[C@H](O)[C@H](O)[C@H]1O", "note": "[α-D-Galactose-1-P]", "values": [
      {"measurement": "Specific activity of pyrophosphorylases, E. coli", "setting": "[3]; [9]", "result": 1, "unit": "mU/mg"},
      {"measurement": "Specific activity of pyrophosphorylases, rice", "setting": "[4]; [9]", "result": 10.41, "unit": "mU/mg"}
    ]},
    {"molecule": "B1", "values": [
      {"measurement": "Specific activity after purification", "setting": "[8]; after purification", "result": 6.12, "unit": "U/mg Protein"},
      {"measurement": "Specific activities Raw extract", "setting": "[8]; raw extract", "result": 0.397, "unit": "U/mg Protein"}
    ]}
  ]
}
